From patent US8951796B2, “Methods and compositions for expanding and stabilizing natural regulatory T cells” (University of Southern California, priority 2010, dated 2015)

Tests used:
CD4+CD25+ nTregs [1] = assay: Th17 conversion of nTregs stimulated with anti-CD3/CD28 and IL-6 (intracellular IL-17 FACS, soluble IL-17A ELISA); format: cell-based, DBA/1 mice
Procedure: (§1) To activate nTregs, CD25^+ or GFP^+ cells were stimulated with anti-CD3/CD28 coated beads (1:5, one bead to five cells), rmIL-2 (100 U/ml) (R&D) with DMSO or all-trans retinoic acid (atRA, 0.05 μM) for 3 days. To generate Th17 cells, these activated nTregs were stimulated with immobilized anti-CD3 (1 μg/ml), soluble anti-CD28 (1 μg/ml), anti-IL-4 (10 μg/ml) (BD biosciences), anti-IFN-γ and IL-6 (10 ng/ml) (BD Pharmingen) for 3 days.
Because atRA was dissolved in DMSO, similar volumes of DMSO was added to the cultures to exclude the possibility that atRA has a non-specific toxic effect on T cells (FIGS. 1A and B). For the data in FIGS. 1A and B, CD4^+CD25^+ cells were stimulated with immobilized anti-CD3 (1 μg/ml), soluble anti-CD28 (1 μg/ml) and IL-6 (10 ng/ml) with or without atRA (0.05 μM). 3 days later, these cells were restimulated with PMA (0.25 μg/ml) and ionomycin (0.25 μg/ml) for 5 h and brefeldin A (5 μg/ml) for 4 h, and then collected for intracellular IL-17 and IFN-γ staining. Values indicate mean±SEM of four separate experiments and representative of these experiments
(§2) In FIG. 1C, soluble IL-17A in the culture supernatants was analyzed by an ELISA. The horizontal line indicates the levels of IL-17A in the supernatant of naïve TCR-stimulated CD4^+ cells in the presence of IL-6 and TGF-β. E, the suppressive activities of nTregs in the presence of IL-6 and/or atRA were determined by the inhibition of tritiated thymidine ([^3H]-TdR) uptake.
For the experiments in FIG. 2D, CD4^+CD25^+ cells were activated as in FIG. 2A and re-stimulated with IL-6 as for the experiments in FIG. 1A described above. Intracellular IL-17 and IFN-γ expression was determined by FACS staining. Results are representative of three independent experiments. IL-17 and IFN-γ secreted into the supernatants was consistent with intracellular cytokine expression (data not shown).

CD4+CD25+ nTregs [2] = assay: FOXP3 expression of activated/expanded nTregs by FACS intracellular staining; format: cell-based, DBA/1 mice
Procedure: as §1
For the experiments in FIG. 1D, nTregs were activated with anti-CD3/CD28 coated beads in the presence of the atRA solvent (DMSO) or atRA (0.05 μM) with or without IL-6 (10 ng/ml) for 3 days and Foxp3 expression was determined and compared to freshly isolated CD4^+CD25^+ cells by FACS intracellular staining.
(§3) For the data in FIGS. 2A and B, CD4^+CD25^+ cells were stimulated with anti-CD3/CD28 coated beads (1:5), rmIL-2 (100 U/ml) with DMSO or atRA (0.05 μM) for 7 days and the FOXP3 expression (A) and total Foxp3^+ cell numbers (B) were determined.

T responder cells = assay: Suppressor assay: inhibition of [3H]-TdR uptake of T responder cells by nTregs; format: cell-based, DBA/1 mice
Procedure: To measure suppressive activities, responder T cells were stimulated with soluble anti-CD3 (0.025 μg/ml) and irradiated APC (1:1), nTregs pretreated with at-RA or without atRA were added to cultures at a ratio of 1:4 (one nTreg to four responder cells). After 72-hour cultures, triplicate wells were pulsed with 1 μCi of [^3H]-TdR for the final 16 hours. Cell proliferation was determined by [^3H]-TdR incorporation using scintillation counting.
as §2
In FIG. 2F, the suppressive activities of atRA or DMSO treated nTregs in the absence or presence of IL-6 in vitro was determined by similar methods as in FIG. 1E. P values were calculated by Student's test and indicate significant differences between atRA and control treated nTregs (P<0.05).

nTregs = assay: Expansion of nTregs with anti-CD3/28 coated beads and IL-2; format: cell-based, DBA/1 mice; conditions: one week, IL-2, with atRA
Procedure: as §1, §3

[3] = tested on: IL-6R (CD126, CD130), STAT3, ROR-γt in nTregs; assay: IL-6 receptor expression and signaling in nTregs by flow cytometry; format: cell-based, mouse
Procedure: One potential mechanism by which atRA treatment stabilizes phenotype of nTregs, particularly suppressive function, may be through downregulation of the expression of IL-6R and IL-6R signaling. To investigate this potential mechanism, CD4^+CD25^+ cells were stimulated with anti-CD3/CD28 coated beads and IL-2 with or without atRA for 4 days. […] CD126 (IL-6Rα chain) expression was determined by flow cytometry. […] When atRA-treated nTregs were restimulated with IL-6, the decrease in IL-6 signaling was accompanied by a decrease of expression of ROR-γt (FIG. 4B), the crucial transcription factor required for Th17 cell differentiation. This finding is in agreement with reports that the combination of IL-2 and TGF-β has dramatic effects on both IL-6 receptor expression and signaling on nTreg cells. […] The p values indicate significant differences between DMSO treated and atRA treated nTregs (p<0.05, t test).

human nTregs = assay: Expansion and FOXP3 expression of human nTregs from peripheral blood; format: cell-based
Excerpt: In addition to mouse nTregs, atRA also stabilized FOXP3 expression of human nTregs. nTregs were isolated from human peripheral blood and expanded with anti-CD3/28 coated beads with IL-2 in the presence or absence of atRA. […] By ten days of culture control FOXP3+ cells increased 5 fold, but atRA treated nTregs increased 20 fold.

[4] = tested on: nTregs isolated from CIA mice; assay: nTregs isolated from CIA mice: suppressive activity by proliferation of T responder cells; format: cell-based, mouse; conditions: anti-CD3 1 μg/ml, IL-6 10 ng/ml, atRA 0.05 μM, 7 days
Procedure: For the experiments in FIG. 7A, nTregs isolated from CIA mice were stimulated with immobilized anti-CD3 (1 μg/ml) and IL-6 (10 ng/ml) with and without atRA (0.05 μM) for 7 days. Phenotypic stability was measured by FOXP3 expression and suppressive activity was determined by the proliferation of T responder cells. CMP indicates the value of T responder cells. Values in FIG. 7A indicate the mean±SEM of three independent experiments. In the experiments in FIG. 7B, nTregs from CIA mice were expanded with anti-CD3/CD28 beads (1:5) and IL-2 (100 U/ml)±atRA (0.05 μM) for 4 days. Mice with established CIA were injected intravenously with 1×10^6 atRA treated nTregs, DMSO treated nTregs or PBS (control group) (n=6/group). The mice were examined every five days after injection and the clinical scores are indicated.

IL-6 Rα mRNA, p-Stat3 = conditions: cited from earlier work
[5] = anti-CD3/CD28 beads, IL-2, atRA, 4 days

SMILES: CC1=C(/C=C/C(C)=C/C=C/C(C)=C/C(=O)O)C(C)(C)CCC1 [atRA, all-trans retinoic acid]
- activation and proliferation status of nTregs (CD4+CD25+ nTregs [1]; addition of atRA): did not affect
- intracellular IL-17 production (CD4+CD25+ nTregs [1]; atRA 0.05 μM added to cultures with IL-6 (10 ng/ml), 3 days): completely blocked
- soluble IL-17 production (CD4+CD25+ nTregs [1]; atRA 0.05 μM added to cultures with IL-6 (10 ng/ml), ELISA of supernatants): completely blocked
- Th17 and Th1 conversion of expanded nTregs (CD4+CD25+ nTregs [1]; nTregs expanded with atRA, restimulated with anti-CD3/28 beads with IL-6): completely resistant
- FOXP3 expressed by nTregs expanded with atRA (CD4+CD25+ nTregs [2]; atRA 0.05 μM, IL-2 100 U/ml, 7 days): remained stable
- down-regulation of FOXP3 expression in the presence of IL-6 (CD4+CD25+ nTregs [2]; atRA 0.05 μM, IL-6 10 ng/ml, 3 days, vs DMSO cultures): almost completely prevented
- FOXP3 expression following re-stimulation with IL-6 (CD4+CD25+ nTregs [2]; nTregs previously treated with atRA): maintained FOXP3 expression
- suppressive activity of nTregs in the presence of IL-6 (T responder cells; atRA added to the cultures with IL-6): maintained the suppressive activity
- T cell response with atRA alone (T responder cells; in the presence of IL-6, in the absence of nTregs): did not suppress
- suppressive function after restimulation with IL-6 (T responder cells; nTregs expanded in the presence of atRA, washed): completely intact
- suppressive activities of nTregs expanded with atRA (T responder cells; vs nTregs expanded without atRA): even superior
- expansion of nTregs (nTregs): eight-fold
- Stat-3 activation in nTregs ([3]; addition of atRA): significantly decreased
- CD126 (IL-6Rα chain) expression in activated nTregs [3, 5]: markedly decreased
- IL-6 Rβ (CD130) expression [3, 5]: significantly decreased
- expression of ROR-γt ([3]; atRA-treated nTregs restimulated with IL-6): decrease
- total number of FOXP3+ cells (human nTregs; human nTregs): significantly increased
- percentage of nTregs expressing FOXP3 (human nTregs; human nTregs proliferating in culture, some cultures with IL-1 and/or IL-6): decreased significantly less than control nTregs
- increase of FOXP3+ cells (human nTregs; human nTregs, ten days of culture): 20 fold
- suppressive activity of nTregs from CIA mice [4]: show suppressive activity
- levels of p-Stat3 expression induced by IL-6 plus TGF-β (IL-6 Rα mRNA, p-Stat3): decreases
- up-regulation of IL-6 Rα mRNA induced by TGF-β (IL-6 Rα mRNA, p-Stat3): strongly inhibits
